Laboratory results from patent publication US11976043B1, “3-cyano-2-ethoxy-9-(2-nitrobenzylidene)-4-(2-nitrophenyl)-6,7,8,9-tetrahydro-5H-cyclohepta[b]pyridine as an antimicrobial compound” (KING FAISAL UNIVERSITY, priority 2023, dated 2024).

How the values were obtained:
Settings in all cases: after 10, 20, 40 and 60 min at all dilutions 1:100, 1:200, 1:400, 1:800
Ps. aeruginosa = test: Antimicrobial testing by agar dilution, Ps. aeruginosa; format: cell-based, Pseudomonas aeruginosa
Method: (§1) The antimicrobial properties of the 3-cyano-2-ethoxy-9-(2-nitrobenzylidene)-4-(2-nitrophenyl)-6,7,8,9-tetrahydro-5H-cyclohepta[b]pyridine was studied by the method of agar dilution. Test solutions of each compound was prepared in concentration of 1% using dimethylformamide as a solvent then they are diluted in physiological solution to obtain the final experimental dilutions 1:100, 1:200, 1:400, 1:800. The effect of these substances are compared with furacillin in a controlable study. The testing microbes used were gram positive bacteria St. Aereus, gram negative bacteria E. coli, Ps. aeruginosa and Candida albicans fungi were taken.
(§2) The experiments used for this survey were meat-pentonlu agar (EPA) for cultivation of bacteria and Saburo environment for fungi. Each experiment used 1 ml of test solution on each plate 500 min. Add 2 drops of emulsified with microbes feel. All experimental samples were taken from the agar after 10, 20, 40, 60 minutes in the environment on the basis of Patrk planted. Bacteria were cultivated at a temperature of 37° C. for 1 day and the mushroom was kept in a thermostat for […] at a temperature of 28° C. in the. Then results were checked.

St. Aereus = test: Antimicrobial testing by agar dilution, St. Aereus; format: cell-based, Staphylococcus aureus
Method: as §1, §2

Candida albicans = test: Antimicrobial testing by agar dilution, Candida albicans; format: cell-based
Method: as §1, §2

E. coli = test: Antimicrobial testing by agar dilution, E. coli; format: cell-based, Escherichia coli
Method: as §1, §2

Measured: inhibition activity (in words)

CCOc1nc2c(c(-c3ccccc3[N+](=O)[O-])c1C#N)CCCCC2=Cc1ccccc1[N+](=O)[O-] [3-cyano-2-ethoxy-9-(2-nitrobenzylidene)-4-(2-nitrophenyl)-6,7,8,9-tetrahydro-5H-cyclohepta[b]pyridine]
most higher inhibition activity: all assays above
